The text below walks through data of US11590139B2, “Substituted aminopurine compounds, compositions thereof, and methods of treatment therewith” (Signal Pharmaceuticals, LLC, priority 2014, dated 2023).

Each structure is given as a SMILES string.

The test system of one test is Lox-IMVI melanoma cell line. Briefly: Lox-IMVI anti-proliferative assay (growth inhibition, Cell Titer-Glo). The following applies: Homo sapiens; IC50 activity level in the cell-based Lox-IMVI anti-proliferative assay; read-out: Activity. It counts as cell-based, human. Put shortly: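 Viability read by ATP luminescence (Cell Titer-Glo) at t0 and after 72 h at 37 °C, 5% CO2, with normalisation to DMSO-treated cells. Compound tested at 0.5 nM–10 μM in 3-fold, 10-point series (0.2% DMSO final) on Lox-IMVI in RPMI+10% FBS; IC50 by 4-parameter sigmoidal fit.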
With `NC(=O)[C@H]1CC[C@@H](n2c(Nc3cccc(F)c3Cl)nc3cnc(NC4CCOCC4)nc32)CC1` [Example 61, (1s,4s)-4-(8-(2-chloro-3-fluorophenylamino)-2-(tetrahydro-2H-pyran-4-ylamino)-9H-purin-9-yl)cyclohexanecarboxamide], the IC50 is greater than 1000 nM.
Same read-out and setting: then `CS(=O)(=O)N1CCC(Nc2ncc3nc(Nc4ccc(Cl)c(F)c4F)n([C@H]4CC[C@@H](C(N)=O)CC4)c3n2)CC1` [Example 298, (1s,4s)-4-(8-(4-chloro-2,3-difluorophenylamino)-2-(1-(methylsulfonyl)piperidin-4-ylamino)-9H-purin-9-yl)cyclohexanecarboxamide], with greater than 1000 nM; and `Cc1cccc(Nc2nc3cnc(NC4CCOCC4)nc3n2[C@H]2CC[C@@H](C(N)=O)CC2)c1Cl` [Example 69, (1s,4s)-4-(8-(2-chloro-3-methylphenylamino)-2-(tetrahydro-2H-pyran-4-ylamino)-9H-purin-9-yl)cyclohexanecarboxamide], with greater than 1000 nM; and `Cc1cc(Cl)c(Nc2nc3cnc(NC4CCOCC4)nc3n2[C@H]2CC[C@@H](C(N)=O)CC2)cc1Cl` [Example 80, (1s,4s)-4-(8-(2,5-dichloro-4-methylphenylamino)-2-(tetrahydro-2H-pyran-4-ylamino)-9H-purin-9-yl)cyclohexanecarboxamide], with 500 to 1000 nM.
Still for that read-out and setting: in the case of `NC(=O)[C@H]1CC[C@@H](n2c(Nc3c(F)cc(Cl)cc3F)nc3cnc(N[C@H]4CCC[C@@H](O)C4)nc32)CC1` [Example 372, (1R,4s)-4-(8-(4-chloro-2,6-difluorophenylamino)-2-((1S,3R)-3-hydroxycyclohexylamino)-9H-purin-9-yl)cyclohexanecarboxamide] it was greater than 1000 nM; in that of `C[C@@H](CO)Nc1ncc2nc(Nc3c(Cl)cc(F)cc3Cl)n([C@H]3CC[C@@H](C(N)=O)CC3)c2n1` [Example 166, (1R,4s)-4-(8-(2,6-dichloro-4-fluorophenylamino)-2-((S)-1-hydroxypropan-2-ylamino)-9H-purin-9-yl)cyclohexanecarboxamide], 500 to 1000 nM.
With `Cc1ccc(F)c(Nc2nc3cnc(NC4CCOCC4)nc3n2[C@H]2CC[C@@H](C(N)=O)CC2)c1Cl` [Example 91, (1s,4s)-4-(8-(2-chloro-6-fluoro-3-methylphenylamino)-2-(tetrahydro-2H-pyran-4-ylamino)-9H-purin-9-yl)cyclohexanecarboxamide], the IC50 is greater than 1000 nM.
On to `CC[C@@H](CO)Nc1ncc2nc(Nc3c(Cl)cccc3Cl)n([C@H]3CC[C@@H](C(N)=O)CC3)c2n1` [Example 153, (1R,4s)-4-(8-(2,6-dichlorophenylamino)-2-((S)-1-hydroxybutan-2-ylamino)-9H-purin-9-yl)cyclohexanecarboxamide], for which the IC50 was greater than 1000 nM.
The same measure, in the same setting: then `NC(=O)[C@H]1CC[C@@H](n2c(Nc3c(F)cccc3Cl)nc3cnc(NC4CCN(c5ccccc5)CC4)nc32)CC1` [Example 108, (1s,4s)-4-(8-(2-chloro-6-fluorophenylamino)-2-(1-phenylpiperidin-4-ylamino)-9H-purin-9-yl)cyclohexanecarboxamide], with greater than 1000 nM; and `NC(=O)[C@H]1CC[C@@H](n2c(Nc3c(Cl)cc(F)cc3Cl)nc3cnc(N[C@@H]4CCCOC4)nc32)CC1` [Example 189, (1S,4s)-4-(8-(2,6-dichloro-4-fluorophenylamino)-2-((R)-tetrahydro-2H-pyran-3-ylamino)-9H-purin-9-yl)cyclohexanecarboxamide], with greater than 1000 nM.
As to `NC(=O)[C@H]1CC[C@@H](n2c(Nc3c(Cl)cc(Cl)cc3Cl)nc3cnc(NC4CC(F)(F)C4)nc32)CC1` [Example 224, (1s,4s)-4-(2-(3,3-difluorocyclobutylamino)-8-(2,4,6-trichlorophenylamino)-9H-purin-9-yl)cyclohexanecarboxamide], the IC50 is greater than 1000 nM.
Consider `NC(=O)[C@H]1CC[C@@H](n2c(Nc3c(F)cc(Cl)cc3F)nc3cnc(N[C@H]4C[C@@H](O)C4)nc32)CC1` [Example 322, (1s,4s)-4-(8-(4-chloro-2,6-difluorophenylamino)-2-((1s,3s)-3-hydroxycyclobutylamino)-9H-purin-9-yl)cyclohexanecarboxamide], for which the IC50 is greater than 1000 nM.
Still for that read-out and setting: then `CC[C@@H](CO)Nc1ncc2nc(Nc3c(F)cc(Cl)cc3F)n([C@H]3CC[C@@H](C(N)=O)CC3)c2n1` [Example 146, (1R,4s)-4-(8-(4-chloro-2,6-difluorophenylamino)-2-((S)-1-hydroxybutan-2-ylamino)-9H-purin-9-yl)cyclohexanecarboxamide], with 500 to 1000 nM.
On the same count and under the same terms, then `NC(=O)[C@H]1CC[C@@H](n2c(Nc3c(F)cc(Cl)cc3Cl)nc3cnc(N[C@H]4CCC[C@@H](O)C4)nc32)CC1` [Example 376, (1R,4s)-4-(8-(2,4-dichloro-6-fluorophenylamino)-2-((1S,3R)-3-hydroxycyclohexylamino)-9H-purin-9-yl)cyclohexanecarboxamide], with greater than 1000 nM; and `NC(=O)[C@H]1CC[C@@H](n2c(Nc3c(F)cc(F)cc3Cl)nc3cnc(N[C@H]4COC[C@@H]4O)nc32)CC1` [Example 312, (1R,4s)-4-(8-(2-chloro-4,6-difluorophenylamino)-2-((3S,4R)-4-hydroxytetrahydrofuran-3-ylamino)-9H-purin-9-yl)cyclohexanecarboxamide], with greater than 1000 nM.

The test is the same for the next values; noted with them: Homo sapiens; Lox-IMVI anti-proliferative assay, IC50 activity level; read-out: Activity.
`C[C@]1(C(N)=O)CC[C@H](n2c(Nc3c(Cl)cc(Cl)cc3Cl)nc3cnc(NC4CCOCC4)nc32)CC1` [Example 474, (1r,4r)-1-methyl-4-(2-(tetrahydro-2H-pyran-4-ylamino)-8-(2,4,6-trichlorophenylamino)-9H-purin-9-yl)cyclohexanecarboxamide]: the IC50 was greater than 1000 nM.
The same measure, in the same setting: in the case of `C[C@]1(C(N)=O)CC[C@@H](n2c(Nc3c(Cl)cc(F)cc3Cl)nc3cnc(NC4CCCC4)nc32)CC1` [Example 560, (1s,4s)-4-(2-(cyclopentylamino)-8-(2,6-dichloro-4-fluorophenylamino)-9H-purin-9-yl)-1-methylcyclohexanecarboxamide] it was 250 to 500 nM; in that of `NC(=O)[C@H]1CC[C@@H](n2c(Nc3c(F)cc(Cl)cc3F)nc3cnc(N[C@@H]4CCC[C@@H](O)C4)nc32)CC1` [Example 421, (1S,4s)-4-(8-(4-chloro-2,6-difluorophenylamino)-2-((1R,3R)-3-hydroxycyclohexylamino)-9H-purin-9-yl)cyclohexanecarboxamide], greater than 1000 nM; in that of `C[C@@H](CO)Nc1ncc2nc(Nc3c(F)cc(C#N)cc3Cl)n([C@H]3CC[C@@](C)(C(N)=O)CC3)c2n1` [Example 552, (1R,4s)-4-(8-(2-chloro-4-cyano-6-fluorophenylamino)-2-((S)-1-hydroxypropan-2-ylamino)-9H-purin-9-yl)-1-methylcyclohexanecarboxamide], less than 250 nM.

The test is the same for the next values; noted with them: Homo sapiens; Lox-IMVI melanoma cell line, anti-proliferative assay; read-out: Activity (IC50 activity level).
Consider `CC(=O)N1CCC[C@@H](Nc2ncc3nc(Nc4c(F)cc(F)cc4Cl)n([C@H]4CC[C@@H](C(N)=O)CC4)c3n2)C1` [Example 797, (1S,4s)-4-(2-((R)-1-acetylpiperidin-3-ylamino)-8-(2-chloro-4,6-difluorophenylamino)-9H-purin-9-yl)cyclohexanecarboxamide], for which the IC50 is greater than 1000 nM.
Still for that read-out and setting: then `N#Cc1ccc(Nc2nc3cnc(NC4CCOCC4)nc3n2[C@H]2CC[C@@H](C(N)=O)CC2)c(Cl)c1Cl` [Example 696, (1s,4s)-4-(8-(2,3-dichloro-4-cyanophenylamino)-2-(tetrahydro-2H-pyran-4-ylamino)-9H-purin-9-yl)cyclohexanecarboxamide], with 500 to 1000 nM; and `C[C@]1(C(N)=O)CC[C@@H](n2c(Nc3c(Cl)cc(C#N)cc3Cl)nc3cnc(N[C@H]4CC[C@H](O)C4)nc32)CC1` [Example 650, (1R,4s)-4-(8-(2,6-dichloro-4-cyanophenylamino)-2-((1S,3S)-3-hydroxycyclopentylamino)-9H-purin-9-yl)-1-methylcyclohexanecarboxamide], with 250 to 500 nM.
As to `N#Cc1cc(Cl)c(Nc2nc3cnc(N[C@@H]4CCCN(C(=O)Nc5ccccc5)C4)nc3n2[C@H]2CC[C@@H](C(N)=O)CC2)c(Cl)c1` [Example 780, (R)-3-(9-((1s,4S)-4-carbamoylcyclohexyl)-8-(2,6-dichloro-4-cyanophenylamino)-9H-purin-2-ylamino)-N-phenylpiperidine-1-carboxamide], the IC50 was greater than 1000 nM.
On the same count and under the same terms, then `C[C@]1(C(N)=O)CC[C@@H](n2c(Nc3c(F)cc(F)cc3Cl)nc3cnc(N[C@H]4CCC[C@@H](O)C4)nc32)CC1` [Example 626, (1R,4s)-4-(8-(2-chloro-4,6-difluorophenylamino)-2-((1S,3R)-3-hydroxycyclohexylamino)-9H-purin-9-yl)-1-methylcyclohexanecarboxamide], with 500 to 1000 nM.
On the same count and under the same terms, then `C[C@]1(C(N)=O)CC[C@@H](n2c(Nc3c(Cl)cc(Cl)cc3Cl)nc3cnc(N[C@H]4CCC[C@@H](O)C4)nc32)CC1` [Example 627, (1R,4s)-4-(2-((1S,3R)-3-hydroxycyclohexylamino)-8-(2,4,6-trichlorophenylamino)-9H-purin-9-yl)-1-methylcyclohexanecarboxamide], with less than 250 nM.
The same measure, in the same setting: in the case of `N#Cc1cc(F)c(Nc2nc3cnc(N[C@H]4CCOC[C@H]4F)nc3n2[C@H]2CC[C@@H](C(N)=O)CC2)c(F)c1` [Example 669, (1R,4s)-4-(8-(4-cyano-2,6-difluorophenylamino)-2-((3S,4S)-3-fluorotetrahydro-2H-pyran-4-ylamino)-9H-purin-9-yl)cyclohexanecarboxamide] it was 500 to 1000 nM.

Still in this test, the particulars now being: Lox-IMVI melanoma cell line, anti-proliferative assay; read-out: Activity (IC50 activity level).
Turning to `C[C@]1(C(N)=O)CC[C@@H](n2c(Nc3c(Cl)cc(F)cc3Cl)nc3cnc(NC4CCC4)nc32)CC1` [Example 606, (1s,4s)-4-(2-(cyclobutylamino)-8-(2,6-dichloro-4-fluorophenylamino)-9H-purin-9-yl)-1-methylcyclohexanecarboxamide], the IC50 was less than 250 nM.
